Here are results for 16 molecules from US6852723B2, “Aralkyl substituted piperazine compounds” (CV Therapeutics, Inc., priority 2000, dated 2005).

The subject of data set [1] is mitochondrial fatty acid oxidation using palmitoyl CoA as substrate. The experiment in a line: Palmitoyl CoA oxidation in isolated rat heart mitochondria (14C bicarbonate trapped). In kind it is biochemical. The following applies: 15 min at 30° C. On the procedure: (§1) Rat heart mitochodria were isolated by the method of Nedergard and Cannon (Methods in Enzymol. 55, 3, 1979).
(§2) Palmitoyl CoA oxidation—The Palmitoyl CoA oxidation was carried out in a total volume of 100 microliters containing the following agents: 110 mM KCl, 33 mM Tris buffer at pH 8, 2 mM KPi, 2 mM MgCl2, 0.1 mM EDTA, 14.7 microM defatted BSA, 0.5 mM malic acid, 13 mM carnitine, 1 mM ADP, 52 micrograms of mitochondrial protein, and 16 microM 1-C14 palmitoyl CoA (Sp. Activity 60 mCi/mmole; 20 microCi/ml, using 5 microliters per assay). The compounds of this invention were added in a DMSO solution at the following concentrations: 100 microM, 30 microM, and 3 microM. In each assay, a DMSO control was used. After 15 min at 30° C., the enzymatic reaction was centrifuged (20,000 g for 1 min), and 70 microliters of the supernatant was added to an activated reverse phase silicic acid column (approximately 0.5 ml of silicic acid). The column was eluted with 2 ml of water, and 0.5 ml of the eluent was used for scintillation counting to determine the amount of C^14 trapped as C^14 bicarbonate ion. The data are presented as % activity of control.

Data set [2] can be described thus: Metabolic stability in human liver S-9 fractions (LC/MS of parent remaining). The following applies: for Liver S-9 stability factor: % parent remaining after 30 min at 37 C divided by average % ranolazine remaining (57%), 10 μM compound, 2 mg/mL S9.
Protocol: Metabolic Stability: As a measure of metabolic stability the compounds of this invention were incubated with human liver S-9 microsomal fractions. After, 30 minutes at 37 C., the amount of parent drug remaining was determined using LC-mass spec. The response factors for each compound was determined by establishing a standard curve and using an internal standard during the analysis of the samples. […] The compounds of this invention were assayed as described in the protocol below and the percentage of parent remaining was divided by the average % of ranolazine remaining (57%) affording a metabolic stability factor.
The purpose of this experiment is to compare the percentages remaining for compounds of this invention with the percentage remaining for ranolazine after 30 minutes of incubation with human liver S9 fractions.
The following reagents were used; Potassium phosphate, 0.5M pH 74. (incubation buffer), kept at room temperature; 0.05M MgCl2 kept at 4° C.; β-Nicotinamide adenine dinucleotide phosphate, tetrasodium salt, reduced form (NADPH), 0.02M solution in water (˜16.6 mg/mL) from Sigma Lot # 79H7044 prepared on day of use.
Incubation mixtures were prepared as follows:
Combine all components with incubation buffer and re-pipette 200 μL/tube+25 μL of the compound being tested along with 25 μL of S-9.
After 5 min of pre-incubation at 37° C., at 0 and 30 min after starting the reaction, a 50 μl aliquot of the incubation mixture was removed and added to 100 μL of 9:1 acetonitrile: methanol containing the internal standard.
The mixture was centrifuged and a 100 μL aliquot of the supernatant was diluted in 1 mL of solvent C (0.1% Formic Acid in water). Then samples were analyzed for change between the ratio of compound to internal standard at time zero and 30 minutes by LC/MS (injected 10 μL).
Samples were analyzed for the starting compounds and potential metabolite/s by LC/MS using an internal standard on a Micromass platform mass spec with a Keystone Inc. BDS ODS-C18 column with a flow rate of 0.25 ml/min.
The subject of data set [3] is mitochondrial fatty acid oxidation using palmitoyl carnitine as substrate. Nature of the data set: Palmitoyl carnitine oxidation in isolated rat heart mitochondria (14C bicarbonate trapped). It is filed as biochemical. The following applies: 15 min at 30° C. As for the experimental part:
as §1
as §2, with “Carnitine Oxidation—The” for “CoA oxidation—The”, “carnitine” for “CoA”, “0.1mg/ml of” for “14.7 microM”, “3” for “13 mM carnitine, 1”, “43” for “16”

Consider `COc1ccccc1OCC(O)CN1CCN(CC(=O)Nc2c(C)cccc2C)CC1` (racemic) [Ranolazine, (±)-N-(2,6-dimethylphenyl)-4-[2-hydroxy-3-(2-methoxyphenoxy)-propyl]-1-piperazineacetamide, reference compound], for which the “Palmitoyl CoA oxidation activity (% of DMSO control)” value stood at 90% in data set [1] (30 μM compound) and 75% in data set [1] (100 μM compound). Besides, the “Liver S-9 stability factor” value in data set [2] is 1.0. Also, the “percentage of ranolazine remaining at the 30 minute time point” value in data set [2] (human liver S-9, 30 minutes at 37 C, average of five experiments) is reported as 57%. Besides, the “Mitochondrial palmitoyl carnitine oxidation, % activity of DMSO control” value in data set [3] (30 μM compound) came out at 98%; in data set [3] (100 μM compound), 63%. `Cc1cccc(C)c1NC(=O)CN1CCN(CC(O)Cc2ccc3c(c2)OCO3)CC1` (stereo not shown) [Compound 7, 2-[4-(3-Benzo[1,3]dioxol-5-yl-2-hydroxy-propyl)-piperazin-1-yl]-N-(2,6-dimethyl-phenyl)-acetamide]: in data set [2], the “Liver S-9 stability factor” value came out at 1.46. As to `Cc1cccc(C)c1NC(=O)CN1CCN(CC(O)CCc2ccccc2)CC1` (stereo not shown) [Compound 9, N-(2,6-dimethylphenyl)-2-[4-(2-hydroxy-4-phenylbutyl)piperazinyl]acetamide], the “Palmitoyl CoA oxidation activity (% of DMSO control)” value in data set [1] (30 μM compound) and in data set [1] (100 μM compound) was 84% each time. Moreover, the “Liver S-9 stability factor” value in data set [2] worked out at 1.18. With `COc1ccccc1CC(O)CN1CCN(CC(=O)Nc2c(C)cccc2C)CC1` (stereo not shown) [Compound 10, N-(2,6-dimethylphenyl)-2-{4-[2-hydroxy-3(2-methoxyphenyl)-propyl]piperazinyl}acetamide], the “Liver S-9 stability factor” value in data set [2] was 1.03.

In the case of `COc1ccc(CC(O)CN2CCN(CC(=O)Nc3c(C)cccc3C)CC2)cc1` (stereo not shown) [Compound 11, N-(2,6-dimethylphenyl)-2-{4-[2-hydroxy-3-(4-methoxyphenyl)propyl]piperazinyl}acetamide], the results for the “Palmitoyl CoA oxidation activity (% of DMSO control)” value in data set [1] (30 μM compound) and in data set [1] (100 μM compound) were 92% and 83%, respectively. For the same molecule, the “Liver S-9 stability factor” value in data set [2] worked out at 1.33. Turning to `Cc1cccc(C)c1NC(=O)CN1CCN(CC(O)Cc2ccccc2)CC1` (stereo not shown) [Compound 12, N-(2,6-dimethylphenyl)-2-{4-[2-hydroxy-3-phenylpropyl]piperazinyl}acetamide], the “Palmitoyl CoA oxidation activity (% of DMSO control)” value in data set [1] (30 μM compound) was 95%; in data set [1] (100 μM compound), 42%. In data set [2], the “Liver S-9 stability factor” value was determined as 1.38. Moreover, the “Mitochondrial palmitoyl carnitine oxidation, % activity of DMSO control” value in data set [3] (100 μM compound) is given as 56%.

Take `Cc1cccc(C)c1NC(=O)CN1CCN(CC(O)Cc2cccc3ccccc23)CC1` (stereo not shown) [Compound 13, N-(2,6-dimethylphenyl)-2-[4-(2-hydroxy-3-naphthylpropyl)piperazinyl]acetamide]: the “Liver S-9 stability factor” value in data set [2] stood at 0.10. Take `COc1ccc(CCC(O)CN2CCN(CC(=O)Nc3c(C)cccc3C)CC2)cc1` (stereo not shown) [Compound 16, N-(2,6-dimethylphenyl)-2-{4-[4-(4-methoxyphenyl)-2-hydroxybutyl]piperazinyl}acetamide]: the “Palmitoyl CoA oxidation activity (% of DMSO control)” value in data set [1] (100 μM compound) is given as 37%. `Cc1cccc(C)c1NC(=O)CN1CCN(CC(O)CCc2c(F)cccc2F)CC1` (stereo not shown) [Compound 17, 2-{4-[4-(2,6-difluorophenyl)-2-hydroxybutyl]piperazinyl}-N-(2,6-dimethylphenyl)acetamide]: the “Palmitoyl CoA oxidation activity (% of DMSO control)” value in data set [1] (100 μM compound) worked out at 78%. For the same molecule, the “Liver S-9 stability factor” value in data set [2] is on record as 0.71. Regarding `Cc1cccc(C)c1NC(=O)CN1CCN(CC(O)CCc2ccccc2Cl)CC1` (stereo not shown) [Compound 18, N-(2,6-dimethylphenyl)-2-{4-[4-(2-chlorophenyl)-2-hydroxybutyl]piperazinyl}acetamide], the “Palmitoyl CoA oxidation activity (% of DMSO control)” value in data set [1] (100 μM compound) turned out to be 78%. Moreover, in data set [2], the “Liver S-9 stability factor” value was found to be 0.68. `Cc1cccc(C)c1NC(=O)CN1CCN(CC(O)CCc2ccc(C(C)(C)C)cc2)CC1` (stereo not shown) [Compound 19, 2-(4-{4-[4-(tert-butyl)phenyl]-2-hydroxybutyl}piperazinyl)-N-(2,6-dimethylphenyl)acetamide]: in data set [1] (100 μM compound), the “Palmitoyl CoA oxidation activity (% of DMSO control)” value came to 35%.

As to `Cc1cccc(C)c1NC(=O)CN1CCN(CC(O)CCc2ccccc2F)CC1` (stereo not shown) [Compound 20, N-(2,6-dimethylphenyl)-2-{4-[4-(2-fluorophenyl)-2-hydroxybutyl]piperazinyl}acetamide], in data set [1] (100 μM compound), the “Palmitoyl CoA oxidation activity (% of DMSO control)” value was determined as 56%.

`Cc1cccc(C)c1NC(=O)CN1CCN(CC(O)CCc2ccc(C(F)(F)F)cc2)CC1` (stereo not shown) [Compound 21, N-(2,6-dimethylphenyl)-2-(4-{2-hydroxy-4-[4-(trifluoromethyl)phenyl]butyl}piperazinyl)acetamide]: the “Palmitoyl CoA oxidation activity (% of DMSO control)” value in data set [1] (100 μM compound) turned out to be 56%. `Cc1cccc(C)c1NC(=O)C(C)(C)N1CCN(CC(O)Cc2ccc3c(c2)OCO3)CC1` (stereo not shown) [Compound 22]: the “Liver S-9 stability factor” value in data set [2] was 1.49.

Turning to `Cc1cccc(C)c1NC(=O)C(C)(C)N1CCN(CC(O)Cc2ccccc2)CC1` (stereo not shown) [Compound 23, N-(2,6-Dimethyl-phenyl)-2-[4-(2-hydroxy-3-phenyl-propyl)-piperazin-1-yl]-isobutyramide], in data set [2], the “Liver S-9 stability factor” value came out at 0.5. For `COc1cc(CC(O)CN2CCN(CC(=O)Nc3c(C)cccc3C)CC2)cc(OC)c1OC` (stereo not shown) [Compound 24, N-(2,6-dimethylphenyl)-2-{4-[2-hydroxy-3-(3,4,5-trimethoxyphenyl)prophyl]piperazinyl}acetamide], in data set [1] (100 μM compound), the “Palmitoyl CoA oxidation activity (% of DMSO control)” value is reported as 72%. The “Liver S-9 stability factor” value in data set [2] is reported as 1.05.
